Among the data in ChEMBL document CHEMBL1133884, “Microwave-assisted [6+4]-cycloaddition of fulvenes and alpha-pyrones to azulene-indoles: facile syntheses of novel antineoplastic agents” (Bioorg Med Chem Lett, 2001) are IC50 values, retold here.

By IC50 is commonly meant the concentration at which inhibition is half-maximal.

Structures are written as SMILES.

One test relates to PC-3. Description: In vitro inhibitory concentration against prostate cancer cell line PC-3. Format: functional, cell-based. The note with it: Homo sapiens.
A further test deals with CAKI-1. Description: In vitro inhibitory concentration against renal cancer cell line […]. The format is functional, cell-based. The note with it: Homo sapiens.
A further test concerns A498. The experiment in a line: In vitro inhibitory concentration against renal cancer cell line A498. The format is functional, cell-based. The note with it: Homo sapiens.
A further test deals with HOP-92. Description: In vitro inhibitory concentration against non small cell lung HOP-92 cell line. The format is functional, cell-based. The note with it: Homo sapiens.
Test [1] can be described thus: Average inhibitory concentration against 60 human cell lines was reported. The format is functional.
A further test concerns EKVX. Description: In vitro inhibitory concentration against non small cell lung EKVX cell line. Format: functional, cell-based. The note with it: Homo sapiens.
In the next test the test system is UACC-257. The experiment in a line: In vitro inhibitory concentration against melanoma cell line UACC-257. Format: functional, cell-based. The note with it: Homo sapiens.
The next test has as its system T47D. The experiment in a line: In vitro inhibitory concentration against breast cancer cell line T-47D. The format is functional, cell-based. The note with it: Homo sapiens.
The subject of a further test is Hs-578T. Description: In vitro inhibitory concentration against breast cancer cell line Hs 578.T. The format is functional, cell-based. The note with it: Homo sapiens.
Another test has as its system NCI-H322M. The experiment in a line: In vitro inhibitory concentration against non small cell lung NCI-H322M cell line. The format is functional, cell-based. The note with it: Homo sapiens.
The subject of another test is K562. Description: In vitro inhibitory concentration against leukemia cell line K-562. Format: functional, cell-based. The note with it: Homo sapiens.
The test system of another test is NCI-H226. The experiment in a line: In vitro inhibitory concentration against non small cell lung NCI-H226 cell line. Format: functional, cell-based. The note with it: Homo sapiens.
A further test deals with IGROV-1. The experiment in a line: In vitro inhibitory concentration against ovarian cancer cell line IGROV1. Format: functional, cell-based. The note with it: Homo sapiens.
For the next test, the system named is SR. The experiment in a line: In vitro inhibitory concentration against leukemia cell line SR. Format: functional, cell-based. The note with it: Homo sapiens.
Another test relates to U-251. Description: In vitro inhibitory concentration against CNS cancer cell line U251. The note with it: Homo sapiens. Format: functional, cell-based.
The next test deals with UO-31. The experiment in a line: In vitro inhibitory concentration against renal cancer cell line UO-31. Format: functional, cell-based. The note with it: Homo sapiens.

On to `Cc1c2cccc-2c(N(C)C)cc2c1[nH]c1ccccc12`, for which the IC50 in the test on PC-3 amounted to 1410 nM; in the test with CAKI-1, 17400 nM; in the test with A498 it was 20900 nM; in the test on HOP-92 it was 560 nM; in [1], 3980 nM.

With `Cc1c2cccc-2ccc2c1[nH]c1ccc(Br)cc12`, the IC50 worked out at 21900 nM with A498; 5370 nM in [1]; 1780 nM with EKVX; 24000 nM in the test with UACC-257; 1700 nM with T47D.

As for `Cc1c2cccc-2c(OCCO)cc2c1[nH]c1ccccc12`, the IC50 with Hs-578T was 930 nM; with A498 it was 13800 nM; in [1], 2510 nM; in the test on EKVX it was 1000 nM; in the test with NCI-H322M, 17000 nM.

Regarding `CC(=O)OCCOc1cc2c([nH]c3ccccc32)c(C)c2cccc1-2`, the IC50 with HOP-92 was determined as 1380 nM; in [1], 2750 nM; in the test on K562, 510 nM; in the test with NCI-H322M, 14500 nM; with NCI-H226 it was 11200 nM.

In the case of `CC(=O)Oc1ccc2[nH]c3c(C)c4cccc-4ccc3c2c1`, the IC50 in test [1] stood at 2190 nM; in the test with IGROV-1, 1580 nM; in the test with K562, 3800 nM; in the test with SR, 4570 nM; with NCI-H226, 1380 nM.

With `Cc1c2cccc-2ccc2c1[nH]c1ccccc12`, the IC50 turned out to be 1480 nM with U-251; 6600 nM in the test on CAKI-1; 11700 nM in the test on A498; 2400 nM in test [1]; 1620 nM in the test on UO-31.
